Results taken from patent publication US20160289236A1, “Protein Kinase Inhibitors” (PHARMASCIENCE INC., priority 2013, published 2016).

What was measured:
[1] = biological target: T1, histidine tagged recombinant human full-length Bruton Agammaglobulinemia Tyrosine Kinase (Btk) (Homo sapiens, UniProt Q06187); test: Btk kinase inhibition assay, Method A (fluorescence polarization, KinEASE FP Fluorescein Green); format: biochemical; settings: 10 μM ATP, 250 μM substrate, 60 minutes, Ki calculated from IC50 with Cheng-Prusoff equation
T1 construct: histidine tagged recombinant human full-length Bruton Agammaglobulinemia Tyrosine Kinase (Btk); His tag
Protocol: Fluorescence polarization-based kinase assays were performed in 384 well-plate format using histidine tagged recombinant human full-length Bruton Agammaglobulinemia Tyrosine Kinase (Btk), and a modified protocol of the KinEASE™ FP Fluorescein Green Assay supplied from Millipore®. Kinase reaction were performed at room temperature for 60 minutes, in presence of 250 μM substrate, 10 μM ATP, and variable test article concentrations. The reaction was stopped with EDTA/kinease detection reagents. Phosphorylation of the substrate peptide was detected by fluorescence polarization, measured with a Tecan 500 instrument. From the dose-response curve obtained, the IC50 was calculated using Graph Pad Prisms®, using a non linear fit curve. The Km for ATP on each enzyme was experimentally determined and the Ki values calculated using the Cheng-Prusoff equation (see: Cheng Y, Prusoff W H. (1973) Relationship between the inhibition constant (K1), and the concentration of inhibitor which causes 50% inhibition (I50) of an enzymatic reaction”. Biochem Pharmacol 22 (23): 3099-108).

splenocytes = test: Splenic cell proliferation assay (anti-IgM stimulated, Cell Titer-Glo); format: cell-based; settings: Splenocyte; CD1 mouse splenocytes, 2.5 ug/ml anti-IgM F(ab')2 for 72 h, 1 h compound pre-treatment; read-out: EC50 (nM), Inhibition of splenic cell proliferation
Protocol: Proliferation of splenocytes in response to anti-IgM can be blocked by inhibition of Btk. Splenocytes were obtained from 6 week old male CD1 mice (Charles River Laboratories Inc.). Mouse spleens were manually disrupted in PBS and filtered using a 70 um cell strainer followed by ammonium chloride red blood cell lysis. Cells were washed, resuspended in Splenocyte Medium (HyClone RPMI supplemented with 10% heat-inactivated FBS, 0.5× non-essential amino acids, 10 mM HEPES, 50 uM beta mercaptoethanol), and incubated at 37° C., 5% CO2 for 2 h, to remove adherent cells. Suspension cells were seeded in 96 well plates, at 50,000 cells per well, and incubated at 37° C., 5% CO2 for 1 h. Splenocytes were pre-treated in triplicate with 10,000 nM curves of Formula I, compounds for 1 h, followed by stimulation of cell proliferation with 2.5 ug/ml anti-IgM F(ab′)2 (Jackson Immuno Research) for 72 h. Cell proliferation was measured by Cell Titer-Glo Luminescent Assay (Promega). EC50 values (50% proliferation in the presence of compound, as compared to vehicle treated controls) were calculated from dose response compound curves using GraphPad Prism Software.

human BTK kinase (hBTK) = biological target: T2, human BTK kinase (hBTK) (Homo sapiens, UniProt Q06187); test: Btk kinase inhibition assay, Method B (KinaseProfiler radiometric protein kinase assay, Eurofins); format: biochemical; settings: [γ-33P-ATP], 250 μM substrate, 40 minutes
T2 construct: purchased Eurofins Pharma Discovery Services UK Limited
Protocol: In vitro potency of selected compound was defined against human BTK kinase (hBTK) using KinaseProfiler radiometric protein kinase assays performed at Eurofins Pharma Discovery Services UK Limited.
hBTK kinase is diluted in buffer and all compounds were prepared to 50× final assay concentration in 100% DMSO. This working stock of the compound was added to the assay well as the first component in the reaction, followed by the remaining components as detailed in the assay protocol listed above. The reaction was initiated by the addition of the MgATP mix. The kinase reaction was performed at room temperature for 40 minutes, in presence of 250 μM substrate, 10 mM MgAcetate, [γ-33P-ATP] (specific activity approx. 500 cpm/pmol, concentration as required) and variable test article concentrations. The ATP concentrations in the assays were with 15 μM of the apparent. The reaction was stopped by the addition of 3% phosphoric acid solution. 10 μL of the reaction is then spotted onto a P30 filtermat and washed three times for 5 minutes in 75 mM phosphoric acid and once in methanol, prior to drying, and scintillation counting. […]

T1 sequence (Q06187 whole entry): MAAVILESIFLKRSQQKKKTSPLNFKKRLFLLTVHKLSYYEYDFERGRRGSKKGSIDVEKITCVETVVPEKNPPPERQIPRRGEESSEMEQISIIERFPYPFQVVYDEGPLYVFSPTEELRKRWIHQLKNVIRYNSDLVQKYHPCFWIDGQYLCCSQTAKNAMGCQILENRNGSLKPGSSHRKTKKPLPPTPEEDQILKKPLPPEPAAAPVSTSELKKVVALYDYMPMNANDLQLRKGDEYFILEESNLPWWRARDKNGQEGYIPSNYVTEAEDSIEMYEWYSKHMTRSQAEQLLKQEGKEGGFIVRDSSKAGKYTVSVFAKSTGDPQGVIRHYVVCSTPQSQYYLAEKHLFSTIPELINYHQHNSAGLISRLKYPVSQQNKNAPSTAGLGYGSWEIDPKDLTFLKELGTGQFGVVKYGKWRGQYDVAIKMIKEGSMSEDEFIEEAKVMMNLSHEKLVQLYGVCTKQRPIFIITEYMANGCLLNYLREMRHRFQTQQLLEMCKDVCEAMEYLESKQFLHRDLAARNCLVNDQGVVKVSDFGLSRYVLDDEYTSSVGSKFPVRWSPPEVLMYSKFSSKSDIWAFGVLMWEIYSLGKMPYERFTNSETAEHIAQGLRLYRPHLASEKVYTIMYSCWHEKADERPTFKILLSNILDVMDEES
T2 sequence (Q06187 whole entry): as above

Compound | Ki [1] | EC50 (splenocytes) | EC50 (human BTK kinase (hBTK))
Cc1ccc(COc2cc(F)cc(Oc3ccc(-n4cc(C(C)C)c5ncnc(N)c54)cc3)c2)cn1 [Compound 1] | < 100 nM | < 100 nM | –
Cc1ncc(COc2cc(F)cc(Oc3ccc(-n4cc(C(C)C)c5ncnc(N)c54)cc3)c2)s1 [Compound 2] | < 100 nM | < 100 nM | –
Cc1ncc(COc2cc(F)cc(Oc3ccc(-n4cc(C5CCCC5)c5ncnc(N)c54)cc3)c2)s1 [Compound 3] | – | < 100 nM | –
Cc1ccc(COc2cc(F)cc(Oc3ccc(-n4cc(C5CCCC5)c5ncnc(N)c54)cc3)c2)cn1 [Compound 4] | – | < 100 nM | –
Cc1ccc(COc2cc(F)cc(Oc3ccc(-n4cc(C5CCOCC5)c5ncnc(N)c54)cc3)c2)cn1 [Compound 5] | < 100 nM | < 100 nM | –
Cc1ncc(COc2cc(F)cc(Oc3ccc(-n4cc(C5CCOCC5)c5ncnc(N)c54)cc3)c2)s1 [Compound 6] | < 100 nM | < 100 nM | –
Cc1ncc(COc2cc(F)cc(Oc3ccc(-n4cc(C5CCOCC5)c5ncnc(N)c54)cc3)c2)cn1 [Compound 7] | < 100 nM | < 100 nM | –
Cc1ncc(COc2cc(F)cc(Oc3ccc(-n4cc(C5CCCC5)c5ncnc(N)c54)cc3)c2)cn1 [Compound 8] | – | < 100 nM | –
Cc1ncc(COc2cc(F)cc(Oc3ccc(-n4cc(C(C)C)c5ncnc(N)c54)cc3)c2)cn1 [Compound 9] | < 100 nM | < 100 nM | –
Cc1ncc(COc2cc(F)cc(Oc3ccc(-n4cc(C5CC(CO)C5)c5ncnc(N)c54)cc3)c2)cn1 (stereo not drawn) [Compound 10] | – | < 100 nM | –
Cc1ncc(COc2cc(F)cc(Oc3ccc(-n4cc([C@H]5C[C@@H](O)C5)c5ncnc(N)c54)cc3)c2)cn1 [Compound 11] | – | < 100 nM | < 100 nM
